# In PMC3853768 (Molecular Pain, 2013):
# Where “and” joins values, the source holds several entries; their conditions need not be identical. Identical values can stand only once. Entries after “also recorded” stand apart in the source; their conditions may differ. Positions of bridges follow the written chain, without caps; N, C: chain ends. Residues, ends and D or L forms follow the SMILES beside them.
# Tests used:
# [1] = test system: N-type calcium channels with auxiliary subunits; settings: cited from earlier work
# [2] = test system: CFA-injected mice (C57 Bl6); settings: mouse, in vivo
# [3] = test system: patients; settings: in vivo; cited from earlier work
# [4] = test system: L-type; assay type: cell-based, mouse
# [5] = test system: P/Q-type channels (Cav2.1); assay type: cell-based, mouse
molecule,measurement,setting,value
"CSCC[C@@H]1NC(=O)[C@H](CC(C)C)NC(=O)[C@H](CCCCN)NC(=O)[C@H](CO)NC(=O)[C@@H]2CSSC[C@@H]3NC(=O)[C@H](CO)NC(=O)CNC(=O)[C@H](CO)NC(=O)[C@H](CSSC[C@H](N)C(=O)N[C@@H](CCCCN)C(=O)N[C@@H](CO)C(=O)N[C@@H](CCCCN)C(=O)NCC(=O)N[C@@H](C)C(=O)N[C@@H](CCCCN)C(=O)N2)NC(=O)[C@H](CSSC[C@@H](C(N)=O)NC(=O)[C@H](CCCNC(=N)N)NC(=O)CNC(=O)[C@H](C(C)C)NC(=O)[C@H]([C@@H](C)O)NC(=O)CNC(=O)[C@H](CO)NC3=O)NC(=O)[C@H](CC(=O)O)NC(=O)[C@H](Cc2ccc(O)cc2)NC1=O [CVID] (H-CKSKGAKCSKLMYDCCSGSCSGTVGRC-NH2; disulfide 1-16, 8-20, 15-27)",affinity for N-type calcium channels in presence of α2δ subunits,[1],significantly reduces the affinity
same,recovery from block in presence of α2δ subunits,[1],decreasing recovery from CVID block
same,reversal of CFA-induced incapacitance (impaired weight bearing),[2],partially reversed impaired weight bearing; also recorded: most effective at reversing mechanical alldoynia; also recorded: most effective at reversal of pain; also recorded: reverse signs of inflammatory pain
same,side-effect profile of irreversible ω-conotoxins,[3],high side-effect profile
C[C@@H]1NC(=O)CNC(=O)[C@H](CCCCN)NC(=O)CNC(=O)[C@H](CCCCN)NC(=O)[C@@H](N)CSSC[C@@H]2NC(=O)[C@@H]3CSSC[C@@H](C(N)=O)NC(=O)[C@H](CCCNC(=N)N)NC(=O)CNC(=O)[C@H](CO)NC(=O)[C@H](CCCNC(=N)N)NC(=O)[C@H](CSSC[C@H](NC(=O)[C@H](CO)NC1=O)C(=O)N[C@@H](CCCNC(=N)N)C(=O)N[C@@H](CCCNC(=N)N)C(=O)N[C@@H]([C@@H](C)O)C(=O)N[C@@H](CO)C(=O)N[C@@H](Cc1ccc(O)cc1)C(=O)N[C@@H](CC(=O)O)C(=O)N3)NC(=O)[C@H](CO)NC(=O)CNC(=O)[C@H]([C@@H](C)O)NC2=O [CVIE],reversal of CFA-induced incapacitance (impaired weight bearing),[2],partially reversed impaired weight bearing; also recorded: most effective at reversing mechanical alldoynia; also recorded: significant reversal of incapacitance; also recorded: most effective at reversal of pain; also recorded: reverse signs of inflammatory pain
"CC(C)C[C@@H]1NC(=O)[C@H](CCCNC(=N)N)NC(=O)[C@@H]2CSSC[C@@H]3NC(=O)[C@H](CO)NC(=O)[C@H](C)NC(=O)CNC(=O)[C@H](CCCCN)NC(=O)CNC(=O)[C@H](CCCCN)NC(=O)[C@@H](N)CSSC[C@H](NC(=O)[C@H](CSSC[C@@H](C(N)=O)NC(=O)[C@H](CCCNC(=N)N)NC(=O)CNC1=O)NC(=O)[C@H](CC(=O)O)NC(=O)[C@H](Cc1ccc(O)cc1)NC(=O)[C@H](CO)NC(=O)[C@H]([C@@H](C)O)NC(=O)[C@H](CCCNC(=N)N)NC(=O)[C@H](CCCNC(=N)N)NC3=O)C(=O)N[C@@H]([C@@H](C)O)C(=O)NCC(=O)N[C@@H](CO)C(=O)N2 [CVIF] (H-CKGKGASCRRTSYDCCTGSCRLGRC-NH2; disulfide 1-16, 8-20, 15-25)",reversal of CFA-induced incapacitance (impaired weight bearing),[2],did not produce significant reversal of incapacitance
COCCOC(=O)C1=C(C)NC(C)=C(C(=O)OC(C)C)C1c1cccc([N+](=O)[O-])c1 (centres unmarked) [nimodipine],inhibition of total ICa (L-type contribution),[4],5% and 4%
ω-agatoxin IVA,inhibition of total ICa (P/Q-type contribution),[5],approximately 30%
